Reference: patent US11209440B2, “T cell balance gene expression, compositions of matters and methods of use thereof” (THE BROAD INSTITUTE, INC., priority 2014, dated 2021)
“Also recorded” adds a separate entry of the source.

Key:
Th17 cells [1] = test: qPCR and Nanostring signature analysis of Th17 cells treated with free fatty acids; type: cell-based, mouse
Experimental: (§1) (A) Naïve T cells were sorted from either WT or IL-23RGFP reporter mice, activated with plate-bound anti-CD3/anti-CD28 and differentiated with TGFβ1+IL-6 for 48 hours. […] (B) Cells from WT and Rorc^−/− mice were sorted, differentiated and treated with FFA as in A. Cells were harvested for RNA purification and qPCR. (C) Naïve WT and CD5L^−/− T cells were differentiated as in A. Cells were then lifted, washed and replated in fresh media with no addition of cytokines and in the presence of control or 5 uM of arachidonic acid (PUFA). Cytokine profile of T cells were measured after PMA/ionomycin restimulation. […] Another 48 hours later, cells were harvested for nanostring analysis (D) or qPCR (E).
Next, the contribution of lipid saturation to Th17 cell pathogenicity was studied.

Rorγt [2] = target: T1, Rorγt (Mus musculus, UniProt P51450); test: Rorγt ChIP-PCR in Th17 cells with added SFA or PUFA; type: cell-based; set-up: endogenous in cells; host or cells: wild-type mouse Th17 cells differentiated in vitro from naïve CD4+ T cells; conditions: WT Th17 cells
T1 sequence (P51450 1-495 isoform P51450-2): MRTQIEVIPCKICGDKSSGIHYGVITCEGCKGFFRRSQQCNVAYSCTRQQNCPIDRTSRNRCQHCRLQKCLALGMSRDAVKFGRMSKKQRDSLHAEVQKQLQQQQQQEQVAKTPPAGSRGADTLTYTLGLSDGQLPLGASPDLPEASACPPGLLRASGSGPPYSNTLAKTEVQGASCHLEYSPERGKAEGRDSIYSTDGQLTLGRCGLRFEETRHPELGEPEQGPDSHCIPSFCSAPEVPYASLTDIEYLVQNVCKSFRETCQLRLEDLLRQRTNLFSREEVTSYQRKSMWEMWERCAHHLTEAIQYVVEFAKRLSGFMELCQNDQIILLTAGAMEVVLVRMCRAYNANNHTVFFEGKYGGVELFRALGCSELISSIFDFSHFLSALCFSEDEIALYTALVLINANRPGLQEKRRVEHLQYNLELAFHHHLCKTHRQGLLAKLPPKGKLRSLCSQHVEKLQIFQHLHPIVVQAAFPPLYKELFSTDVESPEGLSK
Experimental: (§2) Lipidome analysis of Th17 cells. (A) WT and CD5L^−/− naïve T cells were differentiated as in FIG. 46B in the presence of cytokines as indicated. Cells and supernatant were harvested at 96 hours and subjected to MS/LC. Three independent mouse experiments were performed. […] (B) Expression of representative metabolites including a cholesterol ester and a PUFA-containing TAG species. FIG. 48 C, D, E, F-J show as follows: (C) Metabolomic analysis of independent mouse experiments where T cells were differentiated under various cytokine conditions as indicated and harvested at 48 h and 96 h. (D,E) Rorγt ChIP from Th17 cells differentiated as described in A. under various conditions as indicated. F-K. Dual luciferase reporter assay was performed in EL4 cells stably transfected with a control vector or Rorγt vector. (F, G) CD5L retroviral vector was cotransfected in F and G at 0, 25, 50 and 100 ng/well. […] All ChIP and luciferase assay are representative of at least 3 independent experiments.

Rorγt [3] = target: T1, Rorγt; test: Dual luciferase reporter assay in EL4 cells stably transfected with Rorγt vector; type: cell-based; set-up: expressed in transfected cells; host or cells: EL4 cells, stably transfected; conditions: for Rorγt driven Il17a transcription: 10 μM arachidonic acid
Experimental: as §2

Th17 cells [4] = test: FACS of IL-17 and IL-23R.GFP in Th17 cells treated with free fatty acids; type: cell-based, mouse
Experimental: as §1

Cd5l expression = Cd5l expression by qPCR in TGFβ1+IL-6 Th17 cells expanded with or without IL-23; type: cell-based, mouse; conditions: naïve T cells differentiated with TGFβ1+IL-6 for 48 h, then IL-23 vs PBS in fresh media
Source text: FIG. 45A-45H show Single-cell RNA-seq identifies Cd5l as a novel regulator associated with Th17 cell pathogenicity and expressed only by non-pathogenic Th17 cells. Single-cells were sorted from in-vitro Th17 cells differentiated with TGFβ1+IL-6 (A,B), IL-1β+IL-6+IL-23 (C), TGFβ3+IL-6 (D) and in-vivo Th17 cells from CNS of mice at the peak of EAE (score=3) (D). IL-17A.GFP^+ CD4^+ T cells were sorted in all panels in D. (A) Correlation of CD5L expression in non-pathogenic Th17 cells with the pathogenic signature (Lee, Awasthi et al.). (B) Principal Component Analysis of CD5L expression where the direction of PC1 correlates with pathogenicity. (C, D) Histogram of CD5L expression in single-cell from conditions as indicated. CD5L expression in vitro is validated by qPCR (E, F) and flow cytometry (G). […] CD5L expression was measured by qPCR at 48 h (E) and 72 h (F) and intracellularly by flow cytometry at 48 h (G); (F) At 48 h, cells were lifted from plate, washed and replated in fresh media with IL-23 or PBS and cultured for additional 24 h. […] Cd5l and Il17a expression are measured by qPCR. […] I. IL-17^+ (GFP^+) and IL-17^− (GFP^−) CD4^+ cells were sorted from the gut of naïve mice and the number of RNA transcripts measured by nanostring and normalized based on four house-keeping genes. […]

Molecule	316 gene signature of Th17 cell differentiation and function (Th17 cells [1]; CD5L−/− Th17 cells (TGFβ1+IL-6), 5 uM arachidonic acid, Nanostring nCounter)	Il22 expression (Th17 cells [1]; qPCR)	expression of key pathogenicity signature genes Il10, Il23r, Ccl5, Csf2 and Lag3 (Th17 cells [1]; qPCR)	effect on Il17 and Il23r expression in Rorγt−/− Th17 cells (Th17 cells [1]; qPCR, Rorγt−/− cells)	Rorγt binding to the Il10 CNS-9 region (Rorγt [2])	Il10 transactivation (Rorγt [3]; added to the agonist ligand)	Rorγt-mediated Il23r transactivation (Rorγt [3]; added to the agonist ligand)	Rorγt driven Il17a transcription (Rorγt [3]; cells expressing CD5L)	Rorγt driven Il17a transcription (Rorγt [3]; control cells)	percentage of IL-17+ CD4+ T cells (Th17 cells [4]; CD5L−/− Th17 cells, non-pathogenic condition, 5 uM arachidonic acid)	percentage of IL-23R.GFP+ CD4 T cells (Th17 cells [4]; IL-23RGFP reporter Th17 (TGFβ1+IL-6) expanded with IL-23, 10 uM arachidonic acid or 20 uM palmitic acid, 48 h, FACS)	percentage of IL-17+ CD4 T cells (Th17 cells [4]; WT Th17 (TGFβ1+IL-6) expanded with IL-23, 10 uM arachidonic acid or 20 uM palmitic acid, 48 h, FACS)	Cd5l expression (Cd5l expression)
CCCCC/C=C\C/C=C\C/C=C\C/C=C\CCCC(=O)O [PUFA, arachidonic acid]	resemble WT non-pathogenic Th17 cells	increased	reciprocally regulated	abolished	significantly increased; also recorded: enhanced	enhanced	almost completely inhibited	but not in those expressing CD5L	decreased	reduced percentage	suppressed	suppressed	–
IL-23: proinflammatory cytokine; recombinant mouse IL-23 (protein, UniProt Q9EQ14 22-196; P43432 23-335, looked up) Interleukin-23 subunit alpha: VPRSSSPDWAQCQQLSRNLCMLAWNAHAPAGHMNLLREEEDEETKNNVPRIQCEDGCDPQGLKDNSQFCLQRIRQGLAFYKHLLDSDIFKGEPALLPDSPMEQLHTSLLGLSQLLQPEDHPRETQQMPSLSSSQQWQRPLLRSKILRSLQAFLAIAARVFAHGAATLTEPLVPTA Interleukin-12 subunit beta: MWELEKDVYVVEVDWTPDAPGETVNLTCDTPEEDDITWTSDQRHGVIGSGKTLTITVKEFLDAGQYTCHKGGETLSHSHLLLHKKENGIWSTEILKNFKNKTFLKCEAPNYSGRFTCSWLVQRNMDLKFNIKSSSSSPDSRAVTCGMASLSAEKVTLDQRDYEKYSVSCQEDVTCPTAEETLPIELALEARQQNKYENYSTSFFIRDIIKPDPPKNLQMKPLKNSQVEVSWEYPDSWSTPHSYFSLKFFVRIQRKKEKMKETEEGCNQKGAFLVEKTSTEVQCKGGNVCVQAQDRYYNSSCSKWACVPCRVRS	–	–	–	–	–	–	–	–	–	–	–	–	significantly suppressed
